According to PubChem BioAssay AID248 (DTP/NCI, 2004):
Values joined by “and” are separate entries in the source; they are usually repeats but may differ in a detail not shown here. Equal values may be shown once. Inconclusive results and toxic doses are left out. No stated cut-off is given here; in the data, active means T/C of 150% or more; inactive means T/C below 125%.

Test system: L1210 leukemia ip in BDF1 mice, survival T/C
Experiment: NCI In Vivo Anticancer Drug Screen. Data for tumor model L1210 Leukemia (intraperitoneal) in B6D2F1 (BDF1) mice
Settings: endpoint: mean survival time, higher = longer survival
Procedure, shortened: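 Tumor was transplanted into mice, which were then dosed with test compound or vehicle alone. Survival was recorded for each group, and the treated figure was expressed relative to the control figure.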

[1] = dose: 100.0 mg/kg/injection, schedule: Q04DX003 (ip), vehicle: saline with Tween-80
[2] = dose: 100.0 mg/kg/injection, schedule: Q01DX009 (ip), vehicle: Klucel (hydroxypropylcellulose) (HPC)
[3] = dose: 200.0 mg/kg/injection, schedule: Q04DX003 (ip), vehicle: saline with Tween-80
[4] = dose: 400.0 mg/kg/injection, schedule: Q04DX003 (ip), vehicle: saline with Tween-80
[5] = dose: 100.0 mg/kg/injection, schedule: Q04DX003 (ip), vehicle: Klucel (hydroxypropylcellulose) (HPC)
[6] = dose: 200.0 mg/kg/injection, schedule: Q01DX009 (ip), vehicle: Klucel (hydroxypropylcellulose) (HPC)
[7] = dose: 200.0 mg/kg/injection, schedule: Q04DX003 (ip), vehicle: Klucel (hydroxypropylcellulose) (HPC)
[8] = dose: 400.0 mg/kg/injection, schedule: Q01DX009 (ip), vehicle: Klucel (hydroxypropylcellulose) (HPC)
[9] = dose: 400.0 mg/kg/injection, schedule: Q04DX003 (ip), vehicle: Klucel (hydroxypropylcellulose) (HPC)
[10] = dose: 100.0 mg/kg/injection, schedule: Q01DX009 (ip), vehicle: saline with Tween-80
[11] = dose: 200.0 mg/kg/injection, schedule: Q01DX009 (ip), vehicle: saline with Tween-80
[12] = dose: 400.0 mg/kg/injection, schedule: Q01DX009 (ip), vehicle: saline with Tween-80
[13] = dose: 100.0 mg/kg/injection, schedule: Q01DX001 (ip), vehicle: carboxymethylcellulose (CMC)
[14] = dose: 100.0 mg/kg/injection, schedule: Q01DX001 (ip), vehicle: saline
[15] = dose: 200.0 mg/kg/injection, schedule: Q01DX001 (ip), vehicle: saline
[16] = dose: 400.0 mg/kg/injection, schedule: Q01DX001 (ip), vehicle: saline

Measured: T/C

CN(C)CCCN1c2ccc(O)cc2Sc2ccc(Cl)cc21
inactive: dose: 3.1 mg/kg/injection, schedule: Q01DX009 (ip), vehicle: other 90 % of control | dose: 6.2 mg/kg/injection, schedule: Q01DX009 (ip), vehicle: other 94 % of control | dose: 12.5 mg/kg/injection, schedule: Q01DX009 (ip), vehicle: other 94 % of control | dose: 25.0 mg/kg/injection, schedule: Q01DX009 (ip), vehicle: other 97 % of control | dose: 50.0 mg/kg/injection, schedule: Q04DX003 (ip), vehicle: saline with Tween-80 103 % of control | [1] 103 % of control

CCC/C(C)=N/Nc1ccccn1
inactive: dose: 12.5 mg/kg/injection, schedule: Q01DX009 (ip), vehicle: Klucel (hydroxypropylcellulose) (HPC) 97 % of control | dose: 25.0 mg/kg/injection, schedule: Q01DX009 (ip), vehicle: Klucel (hydroxypropylcellulose) (HPC) 94 % of control | dose: 25.0 mg/kg/injection, schedule: Q01DX009 (ip), vehicle: acetone 106 % of control | dose: 50.0 mg/kg/injection, schedule: Q01DX009 (ip), vehicle: Klucel (hydroxypropylcellulose) (HPC) 102 % of control | dose: 50.0 mg/kg/injection, schedule: Q01DX009 (ip), vehicle: acetone 87 % of control | dose: 50.0 mg/kg/injection, schedule: Q04DX003 (ip), vehicle: acetone 103 % of control | dose: 100.0 mg/kg/injection, schedule: Q01DX001 (ip), vehicle: acetone 98 % of control | [2] 102 % of control | dose: 100.0 mg/kg/injection, schedule: Q04DX003 (ip), vehicle: acetone 97 % of control | dose: 200.0 mg/kg/injection, schedule: Q01DX001 (ip), vehicle: acetone 103 % of control

C/C=C/c1cc(OC)cc(C2(O)OC(=O)c3c(OC)cccc32)c1OC (stereo not given)
inactive: [1] 105 % of control | [3] 94 % of control | [4] 100 % of control

CC(Cl)(/N=N\C(C)(Cl)c1ccc(Cl)cc1)c1ccc(Cl)cc1 (stereo not given)
inactive: dose: 100.0 mg/kg/injection, schedule: Q01DX001 (ip), vehicle: Klucel (hydroxypropylcellulose) (HPC) 96 % of control | [2] 92 % of control | [5] 103 % of control | dose: 200.0 mg/kg/injection, schedule: Q01DX001 (ip), vehicle: Klucel (hydroxypropylcellulose) (HPC) 92 % of control | [6] 106 % of control | [7] 103 % of control | dose: 400.0 mg/kg/injection, schedule: Q01DX001 (ip), vehicle: Klucel (hydroxypropylcellulose) (HPC) 96 % of control | [8] 98 % of control | [9] 93 % of control

COc1c(NC(=O)C(Br)C(Br)C(=O)O)cccc1[N+](=O)[O-] (stereo not given)
inactive: [10] 100 % of control | [11] 95 % of control | [12] 95 % of control

O=C(c1ccccc1)C(Br)S(=O)(=O)C(Br)C(=O)c1ccccc1 (stereo not given)
inactive: dose: 100.0 mg/kg/injection, schedule: Q04DX003 (ip), vehicle: saline 107 % of control | dose: 200.0 mg/kg/injection, schedule: Q04DX003 (ip), vehicle: saline 107 % of control | dose: 400.0 mg/kg/injection, schedule: Q04DX003 (ip), vehicle: saline 109 % of control

CC(C)(C)C1CCC(=O)C(Cl)C1 (stereo not given)
inactive: [2] 94 % of control | dose: 100.0 mg/kg/injection, schedule: Q04DX003 (ip), vehicle: alcohol 94 % of control | [6] 95 % of control | dose: 200.0 mg/kg/injection, schedule: Q04DX003 (ip), vehicle: alcohol 92 % of control | dose: 400.0 mg/kg/injection, schedule: Q04DX003 (ip), vehicle: alcohol 87 % of control

CC(=O)Nc1cc2c3ccccc3ccc2c2ccccc12
inactive: [13] 87 % of control

CCCCCCC1CC2CCCCC2CC1CCCC (stereo not given)
inactive: [13] 96 % of control | dose: 200.0 mg/kg/injection, schedule: Q01DX001 (ip), vehicle: carboxymethylcellulose (CMC) 100 % of control | dose: 400.0 mg/kg/injection, schedule: Q01DX001 (ip), vehicle: carboxymethylcellulose (CMC) 94 % of control

Cc1cc(CCN)c(C)c2c1sc1ccccc12
inactive: dose: 75.0 mg/kg/injection, schedule: Q01DX001 (ip), vehicle: saline 89 % of control

CCOC(=O)C1=NN(c2ccccc2)C(=O)C1N=Nc1ccc(NS(=O)(=O)c2nccs2)cc1 (stereo not given)
inactive: [14] 102 % of control | [15] 105 % of control | [16] 96 % of control

COc1ccc(NC(=O)Nc2ccc(Cl)cc2)cc1
inactive: [2] 97 % of control | [5] 104 % of control | [6] 98 % of control | [7] 104 % of control | [8] 93 % of control | [9] 106 % of control

Cc1ccc(NC(=O)Oc2ccc(-c3ccccc3)cc2)cc1NC(=O)Oc1ccc(-c2ccccc2)cc1
inactive: [10] 91 % of control | [12] 96 % of control

CCCCCCOP(=O)(N1CC1C)N1CC1C (stereo not given)
inactive: dose: 12.0 mg/kg/injection, schedule: Q01DX Z (ip), vehicle: saline 102 % of control | dose: 25.0 mg/kg/injection, schedule: Q01DX Z (ip), vehicle: saline 103 % of control | dose: 50.0 mg/kg/injection, schedule: Q01DX Z (ip), vehicle: saline 102 % of control and 111 % of control | dose: 100.0 mg/kg/injection, schedule: Q01DX Z (ip), vehicle: saline 109 % of control | dose: 200.0 mg/kg/injection, schedule: Q01DX Z (ip), vehicle: saline 107 % of control | dose: 400.0 mg/kg/injection, schedule: Q01DX Z (ip), vehicle: saline 106 % of control

CCOC(=O)C(=O)Cc1cnccn1
inactive: dose: 100.0 mg/kg/injection, schedule: Q01DX001 (ip), vehicle: other 101 % of control and 108 % of control | dose: 200.0 mg/kg/injection, schedule: Q01DX001 (ip), vehicle: other 100 % of control and 101 % of control | dose: 400.0 mg/kg/injection, schedule: Q01DX001 (ip), vehicle: other 97 % of control

Cc1ccc(SC(=O)CC(=O)Sc2ccc(C)cc2)cc1
inactive: dose: 50.0 mg/kg/injection, schedule: Q01DX009 (ip), vehicle: saline with Tween-80 91 % of control | [10] 94 % of control | [11] 97 % of control

Cc1c2ccccc2c(CCl)c2ccc3ccccc3c12
inactive: dose: 12.5 mg/kg/injection, schedule: Q01DX009 (ip), vehicle: carboxymethylcellulose (CMC) 110 % of control | dose: 25.0 mg/kg/injection, schedule: Q01DX009 (ip), vehicle: carboxymethylcellulose (CMC) 113 % of control

O=C(O)C1Cc2c([nH]c3ccccc23)C(c2ccccc2)N1 (stereo not given)
inactive: [10] 96 % of control | [1] 104 % of control | [11] 94 % of control | [3] 102 % of control | [12] 97 % of control | [4] 96 % of control

O=C(O)C1=NN(c2ccc([N+](=O)[O-])cc2)C(=O)C1
inactive: dose: 100.0 mg/kg/injection, schedule: Q04DX003 (ip), vehicle: other 106 % of control | dose: 200.0 mg/kg/injection, schedule: Q04DX003 (ip), vehicle: other 105 % of control | dose: 400.0 mg/kg/injection, schedule: Q04DX003 (ip), vehicle: other 106 % of control

Cc1ccc(N2C(=O)CSC2=S)cc1F
inactive: dose: 100.0 mg/kg/injection, schedule: Q04DX002 (ip), vehicle: Klucel (hydroxypropylcellulose) (HPC) 96 % of control | dose: 200.0 mg/kg/injection, schedule: Q04DX002 (ip), vehicle: Klucel (hydroxypropylcellulose) (HPC) 104 % of control | dose: 400.0 mg/kg/injection, schedule: Q04DX002 (ip), vehicle: Klucel (hydroxypropylcellulose) (HPC) 101 % of control

CC(=O)n1cc(C2CC(=O)OC3=C2CC(=O)C(C)(C)C3)c2ccccc21 (stereo not given)
inactive: [10] 100 % of control | [1] 95 % of control | [11] 96 % of control | [3] 101 % of control | [12] 91 % of control | [4] 101 % of control

CC(=O)OC1CCC2(C)C(CCC3C(CCC(=O)O)C(C)(CC(C)C(=O)O)CCC32)C1 (stereo not given)
inactive: dose: 100.0 mg/kg/injection, schedule: Q04DX003 (sc), vehicle: steriod suspending solution 116 % of control | dose: 200.0 mg/kg/injection, schedule: Q04DX003 (sc), vehicle: steriod suspending solution 109 % of control | dose: 400.0 mg/kg/injection, schedule: Q04DX003 (sc), vehicle: steriod suspending solution 113 % of control

COC(c1ccccc1)c1ccccc1
inactive: dose: 50.0 mg/kg/injection, schedule: Q01DX001 (ip), vehicle: saline 109 % of control | [14] 94 % of control | [15] 100 % of control | [16] 94 % of control

COC(=O)CCCCCNC(=O)NCCCCCC(=O)OC
inactive: [2] 90 % of control | [5] 95 % of control | [6] 87 % of control | [7] 93 % of control | [8] 90 % of control | [9] 93 % of control
